The values that follow come from patent US20100183530A1, “Cosmetic compositions comprising 4-carboxy-2-pyrrolidinone esters and triazine lipophilic UV-screening agents” (L'OREAL, priority 2008, published 2010).

A short description of this data set: Solubility of lipophilic triazine screening agents in oils (prior art solvents and solvents of the invention). In kind it is physicochemical. As to conditions: weight/weight, solution left at laboratory temperature for 1 month, no crystal or oily deposit.
Where [1] appears, read: oil: Caprylic/capric acid triglycerides.
[2] abbreviates: oil: Compound (m) of the invention.
Where [3] appears, read: oil: Isopropyl N-lauroylsarcosinate.

“2,4-bis(isobutyl 4′-aminobenzalmalonate)-6-[(3-{1,3,3,3-tetramethyl-1-[(trimethylsilyl)oxy]disiloxanyl}propyl)amino]-1,3,5-triazine [Screening agent 2]”: the “solubility of the screening agent in the oil” value (from here on “solubility”) runs as follows: (oil: C12-C15 alkyl benzoate) 8%; under setting [1], 6%; under setting [2], 60% gel; under setting [3], 35%.
As to `CC(C)(C)COC(=O)C(=Cc1ccc(Nc2nc(Nc3ccc(C=C(C(=O)OCC(C)(C)C)C(=O)OCC(C)(C)C)cc3)nc(Nc3ccc(C=C(C(=O)OCC(C)(C)C)C(=O)OCC(C)(C)C)cc3)n2)cc1)C(=O)OCC(C)(C)C` [Screening agent 1, Dineopentyl 2-[4-({4,6-bis[(4-{3-(neopentyloxy)-2-[(neopentyloxy)carbonyl]-3-oxoprop-1-enyl}phenyl)amino]-1,3,5-triazin-2-yl}amino)benzylidene]malonate], the “solubility” value was 60% gel under setting [2] and 40% gel under setting [3].
Turning to `CCCCOC(=O)c1ccc(Nc2nc(Nc3ccc(C=C(C(=O)OCC(C)(C)C)C(=O)OCC(C)(C)C)cc3)nc(Nc3ccc(C=C(C(=O)OCC(C)(C)C)C(=O)OCC(C)(C)C)cc3)n2)cc1` [Screening agent 3, Dineopentyl 2-[4-({4-{[4-(butoxycarbonyl)phenyl]amino}-6-[(4-{3-(neopentyloxy)-2-[(neopentyloxy)carbonyl]-3-oxoprop-1-enyl}phenyl)amino]-1,3,5-triazin-2-yl}amino)benzylidene]malonate], the “solubility” value reads like this: under setting [2], 60% gel; under setting [3], 40% gel.
As for `CC(C)(C)COC(=O)C(=Cc1ccc(Nc2nc(Nc3ccc(C=C(C(=O)OCC(C)(C)C)C(=O)OCC(C)(C)C)cc3)nc(Nc3ccc(C(=O)NC(C)(C)C)cc3)n2)cc1)C(=O)OCC(C)(C)C` [Screening agent 4, Dineopentyl 2-[4-({4-({4-[(tert-butylamino)carbonyl]phenyl}amino)-6-[(4-{3-(neopentyloxy)-2-[(neopentyloxy)carbonyl]-3-oxoprop-1-enyl}phenyl)amino]-1,3,5-triazin-2-yl}amino)benzylidene]malonate], the “solubility” value by setting is: under setting [2], 60% gel; under setting [3], 40% gel.
Consider `CC(C)(C)CC(C)(C)NC(=O)c1ccc(Nc2nc(NCCC[Si](C)(O[Si](C)(C)C)O[Si](C)(C)C)nc(Nc3ccc(C(=O)NC(C)(C)CC(C)(C)C)cc3)n2)cc1` [Screening agent 5, N-(1,1,3,3-tetramethylbutyl)-4-({4-[(4-{[(1,1,3,3-tetramethylbutyl)amino]carbonyl}phenyl)amino]-6-[(3-{1,3,3,3-tetramethyl-1-[(trimethylsilyl)oxy]disiloxanyl}propyl)amino]-1,3,5-triazin-2-yl}amino)benzamide], for which the “solubility” value under setting [2] was 60% gel and the “solubility” value under setting [3] was found to be 40% gel.
`CCCCOC(=O)c1ccc(Nc2nc(NCCC[Si](C)(O[Si](C)(C)C)O[Si](C)(C)C)nc(Nc3ccc(C(=O)OCCCC)cc3)n2)cc1` [Screening agent 8, Butyl 4-({4-{[4-(butoxycarbonyl)phenyl]amino}-6-[(3-{1,3,3,3-tetramethyl-1-[(trimethylsilyl)oxy]disiloxanyl}propyl)amino]-1,3,5-triazin-2-yl}amino)benzoate]: the “solubility” value came out at 27% (oil: 2-Phenylethyl benzoate); 28% (oil: C12-C15 alkyl benzoate); 31% under setting [1]; 60% gel (oil: Compound (I) of the invention); 60% gel (oil: Compound (ii) of the invention); 60% gel (oil: Compound (j) of the invention). The “solubility” value stood at 60% gel under setting [2] and 40% gel under setting [3].
Take `CCCCC(CC)COc1ccc(-c2nc(-c3ccc(OC)cc3)nc(-c3ccc(OCC(CC)CCCC)cc3O)n2)c(O)c1` (centres unmarked) [Screening agent 10, 5-[(2-Ethylhexyl)oxy]-2-[4-{4-[(2-ethylhexyl)oxy]-2-hydroxyphenyl}-6-(4-methoxyphenyl)-1,3,5-triazin-2-yl]phenol]: the “solubility” value under setting [2] amounted to 18%, the “solubility” value (oil: Compound (v) of the invention) was 20% and the “solubility” value under setting [3] is given as 10%.
